According to patent US20180186742A1, “PICOLINAMIDES AS FUNGICIDES” (Dow AgroSciences LLC, priority 2017, published 2018):
Read-outs that look alike come from different tables or passages of the source.

What was measured:
[1] = system: Puccinia triticina; experiment: Wheat brown rust (PUCCRT), disease control on wheat seedlings; type: in vivo; conditions: for pest or weed control at 121.5 g/ha: low volume application at 121.5 g/H; for pest or weed control at 100 ppm: high volume application at 100 ppm
Description: Technical grades of materials were dissolved in acetone, which were then mixed with nine volumes of water containing 110 ppm Triton X-100. The fungicide solutions were applied onto wheat seedlings using an automated booth sprayer to run-off. All sprayed plants were allowed to air dry prior to further handling. All fungicides were evaluated using the aforementioned method for their activity vs. all target diseases, unless stated otherwise. Wheat leaf blotch and brown rust activity were also evaluated using track spray applications, in which case the fungicides were formulated as EC formulations, containing 0.1% Trycol 5941 in the spray solutions. Wheat plants (variety Yuma) were grown from seed in a greenhouse in 50% mineral soil/50% soil-less Metro mix until the first leaf was fully emerged, with 7-10 seedlings per pot. These plants were inoculated with an aqueous spore suspension of Puccinia triticina either prior to or after fungicide treatments. After inoculation the plants were kept in a dark dew room at 22° C. with 100% relative humidity overnight to permit spores to germinate and infect the leaf. The plants were then transferred to a greenhouse set at 24° C. for disease to develop. Fungicide formulation, application and disease assessment followed the procedures as described in the Example A.

[2] = system: Zymoseptoria tritici; experiment: Leaf blotch of wheat (SEPTTR), disease control on wheat seedlings; type: in vivo; conditions: for pest or weed control at 121.5 g/ha: low volume application at 121.5 g/H; for pest or weed control at 100 ppm: high volume application at 100 ppm
Description: Technical grades of materials were dissolved in acetone, which were then mixed with nine volumes of water containing 110 ppm Triton X-100. The fungicide solutions were applied onto wheat seedlings using an automated booth sprayer to run-off. All sprayed plants were allowed to air dry prior to further handling. All fungicides were evaluated using the aforementioned method for their activity vs. all target diseases, unless stated otherwise. Wheat leaf blotch and brown rust activity were also evaluated using track spray applications, in which case the fungicides were formulated as EC formulations, containing 0.1% Trycol 5941 in the spray solutions. Wheat plants (variety Yuma) were grown from seed in a greenhouse in 50% mineral soil/50% soil-less Metro mix until the first leaf was fully emerged, with 7-10 seedlings per pot. These plants were inoculated with an aqueous spore suspension of Zymoseptoria tritici either prior to or after fungicide treatments. After inoculation the plants were kept in 100% relative humidity (one day in a dark dew chamber followed by two to three days in a lighted dew chamber at 20° C.) to permit spores to germinate and infect the leaf. The plants were then transferred to a greenhouse set at 20° C. for disease to develop. When disease symptoms were fully expressed on the 1st leaves of untreated plants, infection levels were assessed on a scale of 0 to 100 percent disease severity. Percent disease control was calculated using the ratio of disease severity on treated plants relative to untreated plants.

[3] = 24 h, 1 Day Protectant, read-out: PUCCRT disease control, 1DP, LV activity
[4] = 72 h, 3 Day Curative, read-out: PUCCRT disease control, 3DC, LV activity
[5] = 24 h, 1 Day Protectant, read-out: SEPTTR disease control, 1DP, LV activity
[6] = 72 h, 3 Day Curative, read-out: SEPTTR disease control, 3DC, LV activity

| Structure (SMILES) | pest or weed control at 121.5 g/ha [1, 3] [%] | pest or weed control at 121.5 g/ha [1, 4] [%] | pest or weed control at 121.5 g/ha [2, 5] [%] | pest or weed control at 121.5 g/ha [2, 6] [%] | pest or weed control at 100 ppm ([1]; 24 h, 1 Day Protectant, read-out: PUCCRT disease control, 1DP, HV activity) [%] | pest or weed control at 100 ppm ([1]; 72 h, 3 Day Curative, read-out: PUCCRT disease control, 3DC, HV activity) [%] | pest or weed control at 100 ppm ([2]; 24 h, 1 Day Protectant, read-out: SEPTTR disease control, 1DP, HV activity) [%] | pest or weed control at 100 ppm ([2]; 72 h, 3 Day Curative, read-out: SEPTTR disease control, 3DC, HV activity) [%] |
| --- | --- | --- | --- | --- | --- | --- | --- | --- |
| COc1ccc([C@H](C(C)C)[C@H](C)OC(=O)[C@H](C)NC(=O)c2nccc(OC)c2OC(C)=O)c(F)c1 [Compound 251] | > 80 | > 80 | < 80 | – | – | – | – | – |
| COc1ccc([C@H](C(C)C)[C@H](C)OC(=O)[C@H](C)NC(=O)c2nccc(OC)c2OC(C)=O)cc1F [Compound 252] | > 80 | < 80 | < 80 | – | – | – | – | – |
| COc1cc(C)ccc1[C@H](C(C)C)[C@H](C)OC(=O)[C@H](C)NC(=O)c1nccc(OC)c1OC(C)=O [Compound 253] | > 80 | > 80 | < 80 | – | – | – | – | – |
| COc1ccc([C@H](C(C)C)[C@H](C)OC(=O)[C@H](C)NC(=O)c2nccc(OC)c2OC(C)=O)c(C)c1 [Compound 254] | > 80 | > 80 | > 80 | – | – | – | – | – |
| COc1ccnc(C(=O)N[C@@H](C)C(=O)O[C@@H](C)[C@H](c2ccc(C)cc2)C(C)C)c1OCOC(C)=O [Compound 255] | > 80 | > 80 | < 80 | – | – | – | – | – |
| COc1ccnc(C(=O)N[C@@H](C)C(=O)O[C@@H](C)[C@H](c2ccc(F)c(C)c2)C(C)C)c1OCOC(C)=O [Compound 256] | > 80 | > 80 | > 80 | – | – | – | – | – |
| COc1ccc([C@H](C(C)C)[C@H](C)OC(=O)[C@H](C)NC(=O)c2nccc(OC)c2OCOC(C)=O)c(F)c1 [Compound 257] | > 80 | > 80 | > 80 | – | – | – | – | – |
| COc1ccc([C@H](C(C)C)[C@H](C)OC(=O)[C@H](C)NC(=O)c2nccc(OC)c2OCOC(C)=O)cc1F [Compound 258] | > 80 | < 80 | < 80 | – | – | – | – | – |
| COc1cc(C)ccc1[C@H](C(C)C)[C@H](C)OC(=O)[C@H](C)NC(=O)c1nccc(OC)c1OCOC(C)=O [Compound 259] | > 80 | > 80 | < 80 | – | – | – | – | – |
| COc1ccc([C@H](C(C)C)[C@H](C)OC(=O)[C@H](C)NC(=O)c2nccc(OC)c2OCOC(C)=O)c(C)c1 [Compound 260] | > 80 | > 80 | > 80 | – | – | – | – | – |
| COc1ccccc1[C@H](C(C)C)[C@H](C)OC(=O)[C@H](C)NC(=O)c1nccc(OC)c1OC(C)=O [Compound 261] | > 80 | < 80 | < 80 | < 80 | – | – | – | – |
| COc1ccc([C@H](C(C)C)[C@H](C)OC(=O)[C@H](C)NC(=O)c2nccc(OC)c2OC(C)=O)c(OC)c1 [Compound 262] | > 80 | < 80 | < 80 | < 80 | – | – | – | – |
| COc1ccccc1[C@H](C(C)C)[C@H](C)OC(=O)[C@H](C)NC(=O)c1nccc(OC)c1OCOC(C)=O [Compound 263] | > 80 | > 80 | < 80 | > 80 | – | – | – | – |
| COc1ccc([C@H](C(C)C)[C@H](C)OC(=O)[C@H](C)NC(=O)c2nccc(OC)c2OCOC(C)=O)c(OC)c1 [Compound 264] | > 80 | > 80 | < 80 | < 80 | – | – | – | – |
| COc1ccnc(C(=O)NCC(=O)O[C@@H](C)[C@H](c2ccc(F)cc2C)C(C)C)c1O [Compound 317] | – | – | – | – | > 80 | > 80 | < 80 | < 80 |
